One series has as its system male ob/ob mice. In words: Hypoglycemic action in ob/ob mice, oral administration. The series is classed as in vivo. The settings on record: Mus musculus, fasting, 3 hr after administration, relative to control group, read-out: Decrease in blood glucose level (%) 3 hr. As for the experimental part: A 0.5% methyl cellulose suspension of the test compound was orally administered to male ob/ob mice (6 to 9 weeks old) grouped based on blood glucose level. A 0.5% methyl cellulose solution alone was administered to a control group.
The blood was drawn from the orbital vein with anesthesia at 3 hours after the administration. The blood was drawn under fasting by removing the feed immediately before test compound administration. The blood thus drawn was separated by centrifugation and the blood glucose level was measured from the obtained plasma according to the hexokinase method (glucose measure kit). For evaluation, decrease in the blood glucose level of the test compound administration group relative to the control group was shown in percentage.

Series [1] addresses T1, recombinant human protein tyrosine phosphatase 1B (Homo sapiens, UniProt P18031).
T1 construct: purchased UBI
T1 sequence (P18031 1-435): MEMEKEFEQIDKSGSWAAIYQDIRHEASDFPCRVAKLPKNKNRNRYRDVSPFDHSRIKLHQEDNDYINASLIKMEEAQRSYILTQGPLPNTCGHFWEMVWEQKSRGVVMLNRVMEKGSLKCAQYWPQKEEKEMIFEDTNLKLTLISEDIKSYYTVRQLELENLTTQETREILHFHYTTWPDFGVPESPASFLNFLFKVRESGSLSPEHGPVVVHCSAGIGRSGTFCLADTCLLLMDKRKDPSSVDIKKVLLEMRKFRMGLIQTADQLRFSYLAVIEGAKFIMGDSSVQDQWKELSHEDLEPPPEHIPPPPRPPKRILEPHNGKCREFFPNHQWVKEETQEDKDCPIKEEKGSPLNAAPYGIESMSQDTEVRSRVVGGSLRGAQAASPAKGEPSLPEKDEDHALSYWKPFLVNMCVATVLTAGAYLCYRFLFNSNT
In words: Protein tyrosine phosphatase 1B inhibitory action (malachite green, phosphorylated insulin receptor peptide substrate). The series is classed as biochemical. The conditions noted are these: recombinant human PTP1B, 60 min room temperature, absorbance at 650 nm. On the procedure:
Preparation of Assay Buffer:
50 mM Tris-HCl buffer (pH 7.5), and 50 mM NaCl and 3 mM dithiothreitol (DTT) were prepared.
Respective 10 mM DMSO solutions of 0.1, 0.3, 1, 3 and 10 μM test compounds were diluted with the above-mentioned assay buffer so that the final dimethyl sulfoxide (DMSO) concentration would be not more than 1%. As a control, an assay buffer was used.
Preparation of Substrate:
A synthetic peptide consisting of 12 amino acids corresponding to 1142nd–1153rd of insulin receptor sequence, wherein three tyrosines therein had been phosphorylated, was diluted with the above-mentioned assay buffer to 80 μM.
A recombinant human protein tyrosine phosphatase 1B (manufactured by UBI) was diluted with the above-mentioned assay buffer (1.2 ng/25 μl).
A sample (10 μl) and a substrate (25 μl) prepared as mentioned above were successively added to a 96 well plate, and an enzyme (25 μl) prepared as mentioned above was added and mixed. After incubation at room temperature for 60 min., malachite green (120 μl, Biomol), which is a phosphorus color fixing agent, was added, and the mixture was further incubated at room temperature for 20 min. to allow color development. The absorbance at 650 nm was measured on a plate reader, and the protein tyrosine phosphatase 1B inhibitory action of the test compound was evaluated.

SMILES strings stand for the structures.

Consider `CN(Cc1ccc(C2CCCCC2)cc1)c1ccc(-c2csc(N(C)Cc3ccc(C(=O)O)cc3)n2)cc1` [Example 1, 4-(N-(4-(4-(N-(4-cyclohexylbenzyl)-N-methylamino)phenyl)-2-thiazolyl)-N-methylaminomethyl)benzoic acid], for which the inhibition in vivo at 0.3 mg/kg in the series with male ob/ob mice (dose 0.3 mg/kg oral) worked out at 35%. Further, in the series on male ob/ob mice (dose 1 mg/kg oral), the inhibition in vivo at 1 mg/kg is 35%. Further, in the series with male ob/ob mice (dose 3 mg/kg oral), the inhibition in vivo at 3 mg/kg stood at 35%. In addition, in series [1], the IC50 (usually the midpoint of a concentration-inhibition curve) amounted to 0.32 µM.
In the case of `CN(C)c1ccc(CCN(C)c2ccc(-c3csc(N(C)Cc4ccc(C(=O)O)cc4)n3)cc2)cc1` [Example 237, 4-((N-(4-(4-(N-(2-(4-dimethylaminophenyl)ethyl)-N-methylamino)phenyl)-2-thiazolyl)-N-methylamino)methyl)benzoic acid], the melting point (usually the temperature of the solid-liquid transition) was in the range of 164 to 167 °C.
Still for that read-out and setting: with `CN(CCc1ccc(N2CCOCC2)cc1)c1ccc(-c2csc(N(C)Cc3ccc(C(=O)O)cc3)n2)cc1` [Example 238, 4-((N-methyl-N-(4-(4-(N-methyl-N-(2-(4-morpholinophenyl)ethyl)amino)phenyl)-2-thiazolyl)amino)methyl)benzoic acid] the figure was 212 to 213 °C; with `CN(Cc1ccc(C(=O)O)cc1)c1nc(-c2ccc(CN3CCN(c4ccccc4)CC3)cc2)cs1` [Example 239, 4-((N-methyl-N-(4-(4-(4-phenyl-1-piperazinylmethyl)phenyl)-2-thiazolyl)amino)methyl)benzoic acid], 159 to 163 °C.
Compound `CN(Cc1ccc(C(=O)O)cc1)c1nc(-c2ccc(CN3CCN(Cc4ccccc4)CC3)cc2)cs1` [Example 240, 4-((N-(4-(4-(4-benzyl-1-piperazinylmethyl)phenyl)-2-thiazolyl)-N-methylamino)methyl)benzoic acid] had a melting point of 130 to 135 °C.
The same measure, in the same setting: as for `CCC(CC)c1ccc(CN(C)c2ccc(-c3csc(N(C)Cc4ccc(C(=O)O)cc4)n3)cc2)cc1` [Example 241, 4-((N-(4-(4-(N-(4-(1-ethylpropyl)benzyl)-N-methylamino)phenyl)-2-thiazolyl)-N-methylamino)methyl)benzoic acid], the figure is 147 to 148 °C; as for `CN(Cc1ccc(C(=O)O)cc1)c1nc(-c2ccc(N(C)Cc3ccc(C4CCCCC4)cc3)c(Cl)c2)cs1` [Example 242, 4-((N-(4-(3-chloro-4-(N-(4-cyclohexylbenzyl)-N-methylamino)phenyl)-2-thiazolyl)-N-methylamino)methyl)benzoic acid], 149 to 150 °C.
Still for that read-out and setting: with `CN(Cc1ccc(C(=O)O)cc1)c1nc(-c2ccc(CN3CCN(C(=O)OCc4ccccc4)CC3)cc2)cs1` [Example 243, benzyl 4-(4-(2-(N-(4-carboxybenzyl)-N-methylamino)-4-thiazolyl)benzyl)-piperazine-1-carboxylate] the figure was 122 to 127 °C.
The same measure, in the same setting: as for `CN(Cc1ccc(C(=O)O)cc1)c1nc(-c2ccc(N(C)Cc3ccc(C(C)(C)C)cc3)c(Cl)c2)cs1` [Example 244, 4-((N-(4-(4-(N-(4-tert-butylbenzyl)-N-methylamino)-3-chlorophenyl)-2-thiazolyl)-N-methylamino)methyl)benzoic acid], the figure is 153 to 154 °C; as for `CC(C)CSc1ccc(CN(C)c2ccc(-c3csc(N(C)Cc4ccc(C(=O)O)cc4)n3)cc2)cc1` [Example 245, 4-((N-(4-(4-(N-(4-isobutylsulfanylbenzyl)-N-methylamino)phenyl)-2-thiazolyl)-N-methylamino)methyl)benzoic acid], 132 to 134 °C.
Consider `CN(Cc1ccc(C2CCCCC2)cc1)c1ccc(-c2csc(NCc3ccc(C(=O)O)cc3)n2)cc1` [Example 247, 4-((4-(4-(N-(4-cyclohexylbenzyl)-N-methylamino)phenyl)-2-thiazolylamino)methyl)benzoic acid], for which the melting point is 209 °C (dec.).
The same measure, in the same setting: with `CN(Cc1ccc(C(=O)OC2OC(=O)c3ccccc32)cc1)c1nc(-c2ccc(OCc3ccc(C4CCCCC4)cc3)cc2)cs1` (stereo not shown) [Example 248, 3-oxo-1,3-dihydroisobenzofuran-1-yl 4-((N-(4-(4-(4-cyclohexylbenzyloxy)phenyl)-2-thiazolyl)-N-methylamino)methyl)benzoate] the figure was 104 to 105 °C; with `CCOC(=O)c1ccc(CN(C)c2nc(-c3ccc(OCc4ccc(C5CCCCC5)cc4)cc3)cs2)cc1` [Example 249, ethyl 4-((N-(4-(4-(4-cyclohexylbenzyloxy)phenyl)-2-thiazolyl)-N-methylamino)methyl)benzoate], 117 to 118 °C; with `CC(=O)OC(C)OC(=O)c1ccc(CN(C)c2nc(-c3ccc(OCc4ccc(C5CCCCC5)cc4)cc3)cs2)cc1` (stereo not shown) [Example 250, 1-acetoxyethyl 4-((N-(4-(4-(4-cyclohexylbenzyloxy)phenyl)-2-thiazolyl)-N-methylamino)methyl)benzoate], 116 to 117 °C.
On the same count and under the same terms, as for `CN(c1ccc(C(=O)[O-])cc1)c1nc(-c2ccc(NCc3ccc(C4CCCCC4)cc3)cc2)cs1.[Na+]` [Example 263, sodium 4-(N-(4-(4-(4-cyclohexylbenzylamino)phenyl)-2-thiazolyl)-N-methylamino)benzoate], the figure is 260 °C; as for `CN(Cc1ccc(C(=O)OCC(=O)OC(C)(C)C)cc1)c1nc(-c2ccc(OCc3ccc(C4CCCCC4)cc3)cc2)cs1` [Example 267, tert-butoxycarbonylmethyl 4-((N-(4-(4-(4-cyclohexylbenzyloxy)phenyl)-2-thiazolyl)-N-methylamino)methyl)benzoate], 122 to 123 °C; as for `CN(Cc1ccc(C(=O)OCOC(=O)C(C)(C)C)cc1)c1nc(-c2ccc(OCc3ccc(C4CCCCC4)cc3)cc2)cs1` [Example 268, 2,2-dimethylpropionyloxymethyl 4-((N-(4-(4-(4-cyclohexylbenzyloxy)phenyl)-2-thiazolyl)-N-methylamino)methyl)benzoate], 88 to 90 °C.
Same read-out and setting: as for `CCOC(=O)OC(C)OC(=O)c1ccc(CN(C)c2nc(-c3ccc(OCc4ccc(C5CCCCC5)cc4)cc3)cs2)cc1` (stereo not shown) [Example 269, 1-ethoxycarbonyloxyethyl 4-((N-(4-(4-(4-cyclohexylbenzyloxy)phenyl)-2-thiazolyl)-N-methylamino)methyl)benzoate], the figure is 99 to 101 °C.
The compound `CC(=O)OCOC(=O)c1ccc(CN(C)c2nc(-c3ccc(OCc4ccc(C5CCCCC5)cc4)cc3)cs2)cc1` [Example 270, acetoxymethyl 4-((N-(4-(4-(4-cyclohexylbenzyloxy)phenyl)-2-thiazolyl)-N-methylamino)methyl)benzoate] had a melting point of 100 to 104 °C.
In turn, `CC(C)OC(=O)OC(C)OC(=O)c1ccc(CN(C)c2nc(-c3ccc(OCc4ccc(C5CCCCC5)cc4)cc3)cs2)cc1` (stereo not shown) [Example 271, 1-isopropoxycarbonyloxyethyl 4-((N-(4-(4-(4-cyclohexylbenzyloxy)phenyl)-2-thiazolyl)-N-methylamino)methyl)benzoate] had a melting point of 76 to 84 °C.
Compound `CC(OC(=O)OC1CCCCC1)OC(=O)c1ccc(CN(C)c2nc(-c3ccc(OCc4ccc(C5CCCCC5)cc4)cc3)cs2)cc1` (stereo not shown) [Example 272, 1-cyclohexyloxycarbonyloxyethyl 4-((N-(4-(4-(4-cyclohexylbenzyloxy)phenyl)-2-thiazolyl)-N-methylamino)methyl)benzoate] gave a melting point of 75 to 79 °C.
As for `Cc1oc(=O)oc1COC(=O)c1ccc(CN(C)c2nc(-c3ccc(OCc4ccc(C5CCCCC5)cc4)cc3)cs2)cc1` [Example 273, 5-methyl-2-oxo-1,3-dioxl-4-ylmethyl 4-((N-(4-(4-(4-cyclohexylbenzyloxy)phenyl)-2-thiazolyl)-N-methylamino)methyl)benzoate], the melting point was in the range of 87 to 92 °C.

Source of the values: US7163952B2, “Azole compound and medicinal use thereof” (Japan Tobacco Inc., priority 2001, dated 2007).
